The values below come from US20190151351A1, “REGULATORS OF ANAPLASTIC LYMPHOMA KINASE AND USES THEREOF” (Celldex Therapeutics, Inc., priority 2014, published 2019).

The subject of assay [1] is ALK. Nature of the assay: SOS inhibition of heparin-induced phosphorylation in NB1 neuroblastoma cells. It is filed as cell-based. Particulars: SOS 0-10 mg/mL along with 10 μg/mL heparin. The method, then:
FIG. 4: Heparin induced activation of ALK is inhibited by sucrose-octasulfate (SOS).
NB1 neuroblastoma cells were treated with increasing doses of SOS (0, 0.001, 0.01, 0.1, 1, and 10 mg/mL) along with 10 μg/mL of heparin.

Assay [2] concerns the target FL-ECD binding to heparin. The assay is described as follows: SPR competition: inhibition of FL-ECD binding to heparin surface. On the procedure:
FIG. 8: Sucrose octasulfate (SOS) inhibits ALK binding to heparin in a dose-dependent manner, as measured by SPR. A titration of SOS was pre-incubated with 350 nM of FL-ECD. These complexes were then injected over the heparin surface.
These complexes were then injected over the heparin surface. […] In addition, the IC50 and inhibition constant values indicate a high degree of specificity for the interaction between heparin and ALK.
A BIACORE™ T100 instrument was used at 25° C. using 25 mM Hepes, 300 mM NaCl, 10% Glycerol, pH 7.4. All reagents were dialyzed with this buffer prior to use. Heparin-biotin (Sigma) sold as ≥97% pure was further purified using PD-10 pre-packed columns (GE-Healthcare) to remove free biotin in solution. Heparin-biotin was then immobilized on an assembled NeutrAvidin surface (amine coupled on a CM4 Series-S Biacore chip): three surfaces were produced with different concentrations of immobilized heparin by varying contact time from 48 to 240 s, and excess ligand was removed. Due to the heterogeneous nature of heparins, the surface was a combination of many chain lengths of heparin. Three-fold dilutions of FL-ECD and ΔN-ECD were injected sequentially over a reference surface without heparin and three heparin surfaces. The surface was regenerated between cycles with 2.5 M NaCl, 5 mM Acetic Acid, pH 4.5. For the SOS competition assay, serial dilutions of SOS were pre-incubated with 0.350 μM FL-ECD and then injected over the chip. Data were analyzed using the BiaCore T100 software.

Assay [3] has as its system ALK. The assay is described as follows: Western blot of ALK and AKT phosphorylation in NB1 neuroblastoma cells (heparin dose response, other glycosaminoglycans). The assay is classed as cell-based. The note with it: heparin 0-100 μg/mL, other glycosaminoglycans at 10 μg/mL. On the procedure:
NB1 neuroblastoma cells were treated with increasing doses of heparin (0, 0.001, 0.01, 0.1, 1, 10, 100 μg/mL heparin), and phosphorylation of ALK and AKT was monitored by Western blot analysis. Various glycosaminoglycans at 10 μg/mL were also assessed for their ability to activate ALK. An ALK-agonistic mAb was used as a positive control for pALK and pAKT.
In general terms: Immunoblotting shows a protein as a band on a membrane.

Assay [4] relates to ALK. The assay is described as follows: Western blot of ALK and MAPK phosphorylation in NB1 neuroblastoma cells. It is filed as cell-based. The note with it: heparin 10 μg/mL. On the procedure:
FIG. 2: Heparin, but neither PTN or MK, induces ALK tyrosine phosphorylation. […] An agonistic anti-ALK monoclonal antibody was used as a positive control for activation of ALK and MAPK.
NB1 neuroblastoma cells were treated with heparin (Hep), pleiotrophin (PTN), and midkine (MK) to determine the influence of each on ALK phosphorylation. […] An agonistic anti-ALK monoclonal antibody was used as a positive control for activation of ALK and MAPK.
Target sequence in this assay (Q9UM73 19-222 limits assumed): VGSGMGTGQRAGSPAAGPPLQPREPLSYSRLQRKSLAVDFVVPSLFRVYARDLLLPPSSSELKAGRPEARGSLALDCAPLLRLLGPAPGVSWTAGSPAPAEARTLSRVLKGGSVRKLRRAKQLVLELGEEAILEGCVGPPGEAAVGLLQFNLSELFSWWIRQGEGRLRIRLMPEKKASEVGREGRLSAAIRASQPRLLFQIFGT

Turning to `O=S(=O)(O)OC[C@H]1O[C@@](COS(=O)(=O)O)(O[C@H]2O[C@H](COS(=O)(=O)O)[C@@H](OS(=O)(=O)O)[C@H](OS(=O)(=O)O)[C@H]2OS(=O)(=O)O)[C@@H](OS(=O)(=O)O)[C@@H]1OS(=O)(=O)O` [SOS, Sucrose-octasulfate], the “inhibition of heparin-induced phosphorylation of ALK, AKT and MAPK” value in the assay with ALK [1] was “capable of inhibiting heparin-induced phosphorylation of ALK, AKT, and MAPK in a dose dependent manner”. Besides, the inhibition constant (Ki) in assay [2] (SPR SOS competition with 350 nM FL-ECD, read-out: inhibition constant (Ki)) was 2.25 µM. In addition, the IC50 in assay [2] (SPR, SOS pre-incubated with 350 nM FL-ECD, Rmax values) came to 6.5 µM. Further, the Kd in assay [2] (calculated using the Cheng-Prusoff equation, read-out: KD for SOS/FL-ECD binding) is 2.25 µM. With Dextran sulfate, in the assay with ALK [3], the “phosphorylation of ALK and AKT” value is “induce phosphorylation of ALK and AKT”.

B1: MK: secreted protein Midkine, proposed as physiological ALK ligand (protein)
chain: VAKKKDKVKKGGPGSECAEWAWGPCTPSSKDCGVGFREGTCGAQTQRIRCRVPCNWKKEFGADCKYKFENWGACDGGTGTKVRQGTLKKARYNAQCQETIRVTKPCTPKTKAKAKAKKGKGKD
As to B1, the “ALK (tyrosine) phosphorylation” value with ALK [4] was “neither PTN nor MK influence ALK phosphorylation”.

B2: PTN: secreted protein Pleiotrophin, proposed as physiological ALK ligand (protein)
chain: GKKEKPEKKVKKSDCGEWQWSVCVPTSGDCGLGTREGTRTGAECKQTMKTQRCKIPCNWKKQFGAECKYQFQAWGECDLNTALKTRTGSLKRALHNAECQKTVTISKPCGKLTKPKPQAESKKKKKEGKKQEKMLD
For the molecule B2, the “ALK (tyrosine) phosphorylation” value with ALK [4] is “neither PTN nor MK influence ALK phosphorylation”.

The Ki is the dissociation constant of the complex between target and ligand, obtained from inhibition or displacement. Broadly, the IC50 is the midpoint of a concentration-inhibition curve.
